In general, pIC50 refers to the negative decadic logarithm of the IC50, by convention in mol/L.

pIC50: −log10 of the molar value. Counter-ions that a name gives are not always drawn.

Here are results for 14 compounds from patent US9181258B2, “Substituted 3,4-dihydropyrrolo[1,2-a]pyrazin-1(2H)-ones as protein kinase inhibitors” (NERVIANO MEDICAL SCIENCES S.R.L., priority 2011, dated 2015).

One assay concerns MV-4-11 cells. Briefly: In vitro cell proliferation assay (CellTiter-Glo), MV-4-11. In kind it is cell-based. The settings on record: Homo sapiens, MV4-11, 72 hours. The method, then:
(§1) In Vitro Cell Proliferation Assay
MV-4-11 (biphenotypic B myelomonocytic leukemia) cell line was obtained from ATCC.
Media for MV-4-11 cell line contained RPMI 1640 or EMEM plus 2 mM Glutamine and 10% Fetal bovine serum.
(§2) BaF3-PIM1 and MV-4-11 cells were seeded at 125 cells/well and 1250 cells/well respectively in a 384-well white plates in complete medium and treated with compounds dissolved in 0.1% DMSO, 24 h after seeding.
(§3) The cells were incubated at 37° C. and 5% CO2 and after 72 hours the plates were processed using CellTiter-Glo assay (Promega) following the manufacturer's instruction.
(§4) CellTiter-Glo was a homogenous method based on the quantification of the ATP present, an indicator of metabolitically active cells. ATP was quantified using a system based on luciferase and D-luciferin resulting into light generation. The luminescent signal was proportional to the number of cells present in culture.
(§5) Briefly 25 μl/well reagent solution were added to each wells and after 5 minutes shacking microplates were red by Envision (PerkinElmer) luminometer. The luminescent signal was proportional to the number of cells present in culture.
(§6) Inhibitory activity was evaluated comparing treated versus control data using Assay Explorer (MDL) program. IC50 was calculated using sigmoidal interpolation curve.
Background: In ATP-based viability assays light output follows the ATP content of the culture.

The target of a further assay is human PIM1 (Homo sapiens (Human), UniProt P11309). Nature of the assay: Biochemical assay for inhibitors of PIM1 kinase activity (trans-phosphorylation, Dowex technique). Particulars: ATP 200 μM, Aktide 25 μM, enzyme 1 nM; read-out: PIM-1 IC50. On the procedure: Biochemical Assay for Inhibitors of PIM1 Kinase Activity
The inhibitory activity of putative kinase inhibitors and the potency of selected compounds were determined using a trans-phosphorylation assay.
Specific peptide or protein substrates were trans-phosphorylated by their specific ser-thr or tyr kinase in the presence of ATP traced with ^33P-γ-ATP, and in the presence of their own optimal buffer and cofactors.
At the end of the phosphorylation reaction, more than 98% unlabeled ATP and radioactive ATP were captured by an excess of the ion exchange dowex resin; the resin then settled down to the bottom of the reaction plate by gravity. Supernatant was subsequently withdrawn and transferred into a counting plate, then evaluated by β-counting.
Reagents/Assay Conditions i. Dowex Resin Preparation
500 g of wet resin (SIGMA, custom prepared resin DOWEX 1×8 200-400 mesh, 2.5 Kg) were weighed out and diluted to 2 L in 150 mM sodium formate, pH 3.00.
The resin was allowed to settle down (some hours) and then the supernatant was discarded.
After three washes as above over a couple of days, the resin was allowed to settle and two volumes (wrt the resin volume) of 150 mM sodium formate buffer were added.
The pH was then measured and should have been around 3.00.
The washed resin was stable for more than one week; the stock resin was kept at 4° C. before use.
The buffer for PIM1 assay was composed of HEPES 50 mM, at pH 7.5, with 10 mM MgCl2, 1 mM DTT, 3 μM NaVO3, and 0.2 mg/mL BSA.
Full-length human PIM1 was expressed and purified as described in Bullock A N, et al., J. Biol. Chem. 2005, 280, 41675-82.
1.7 μM PIM1 was incubated 1 h at 28° C. in the presence of 125 μM ATP.
ATP concentration: 200 μM; ^33P-γ-ATP: 6 nM; Enzyme concentration: 1 nM Substrate concentration Aktide (Chemical Abstract Service Registry Number 324029-01-8): 25 μM iv. Robotized Dowex Assay
The test mix consisted of:
1) 3× Enzyme mix (done in Kinase Buffer 3×), 5 μL/well
2) 3× substrate and ATP mix (done in ddH2O), together with ^33P-γ-ATP, 5 μL/well 3) 3× test compounds (diluted into ddH2O—3% DMSO)—5 μL/well See below for compound dilution and assay scheme […]
An automated station (Biomek FX, Beckman) was used for serial dilutions, producing 1:3 dilutions in 100% DMSO, from line A1 to A10, for all the compounds in the column.
Data were analyzed by an internally customized version of the “Assay Explorer” SW package, which provided sigmoidal fitting of the ten-dilution curves for IC50 determination in secondary assay/hit confirmation routines.

Another assay relates to BaF3-PIM1 cells. Nature of the assay: In vitro cell proliferation assay (CellTiter-Glo), BaF3-PIM1. Particulars: 72 hours. In kind it is cell-based. The method, then:
as §1, §2, §3, §4, §5, §6

The target of a further assay is human PIM2 (Homo sapiens (Human), UniProt Q9P1W9). Briefly: PIM2 kinase inhibition assay: Dowex technique. In kind it is biochemical. The settings on record: ATP 4 μM, Aktide 5 μM, enzyme 1.5 nM; read-out: PIM-2 IC50. The method, then:
Method for PIM2 Kinase Inhibition Assay: Dowex Technique
The buffer for PIM2 assay was composed of HEPES 50 mM, at pH 7.5, with 1 mM MgCl2, 1 mM DTT, 3 μM Na3VO4, and 0.2 mg/mL BSA.
Full-length human PIM2 was expressed and purified as described in Fedorov O, et al., PNAS 2007 104, 51, 20523-28. ii. Assay Conditions (Final Concentrations)
Enzyme concentration=1.5 nM; ATP=4 μM; ^33P-γ-ATP=1 nM
Aktide substrate (Chemical Abstract Service Registry Number 324029-01-8)=5 μM iii. Robotized Dowex Assay
See above: same procedure as described for PIM1.

Sequence of human PIM1 (P11309 whole entry): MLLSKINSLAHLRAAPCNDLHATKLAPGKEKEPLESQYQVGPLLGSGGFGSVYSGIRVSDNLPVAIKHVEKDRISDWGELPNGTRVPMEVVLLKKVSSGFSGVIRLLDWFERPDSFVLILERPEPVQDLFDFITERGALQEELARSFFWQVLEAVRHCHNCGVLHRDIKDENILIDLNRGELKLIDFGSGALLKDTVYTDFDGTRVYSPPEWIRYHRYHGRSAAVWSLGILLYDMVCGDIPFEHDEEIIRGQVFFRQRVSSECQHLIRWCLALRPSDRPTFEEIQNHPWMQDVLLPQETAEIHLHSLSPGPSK
Sequence of human PIM2 (Q9P1W9 whole entry): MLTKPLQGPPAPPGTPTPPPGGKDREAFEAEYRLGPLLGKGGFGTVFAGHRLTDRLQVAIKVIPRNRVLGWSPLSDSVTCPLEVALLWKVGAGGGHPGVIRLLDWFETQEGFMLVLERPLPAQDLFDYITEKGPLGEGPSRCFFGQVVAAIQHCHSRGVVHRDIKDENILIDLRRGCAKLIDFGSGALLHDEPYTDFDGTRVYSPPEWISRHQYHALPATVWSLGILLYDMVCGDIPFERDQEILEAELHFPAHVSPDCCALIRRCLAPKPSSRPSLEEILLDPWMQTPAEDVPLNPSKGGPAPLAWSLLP

Consider `Cc1cccc(-c2c(-c3cc(Cl)ccc3F)cc3n2C(CCN)CNC3=O)c1` (centres unmarked) [Compound 59, 4-(2-aminoethyl)-7-(5-chloro-2-fluorophenyl)-6-(3-methylphenyl)-3,4-dihydropyrrolo[1,2-a]pyrazin-1(2H)-one hydrochloride], for which the pIC50 in the assay on MV-4-11 cells was 5.34; on human PIM1, 7.40; with BaF3-PIM1 cells, 6.49; at human PIM2 it was 6.94.

On to `CN(C)Cc1ccc(-c2c(-c3cccc(OC(F)(F)F)c3)cc3n2C(CCCl)CNC3=O)cc1` (centres unmarked) [Compound 70, 4-(2-chloroethyl)-6-{4-[(dimethylamino)methyl]phenyl}-7-[3-(trifluoromethoxy)phenyl]-3,4-dihydropyrrolo[1,2-a]pyrazin-1(2H)-one trifluoroacetate], for which the pIC50 in the assay with MV-4-11 cells was 5.82; at human PIM1, 7.80; in the assay with BaF3-PIM1 cells it was 6.38; on human PIM2, 6.95.

Take `CN1CCN(Cc2ccc(-c3c(-c4cccc(OC(F)(F)F)c4)cc4n3C(CCCl)CNC4=O)cc2)CC1` (centres unmarked) [Compound 71, 4-(2-chloroethyl)-6-{4-[(4-methylpiperazin-1-yl)methyl]phenyl}-7-[3-(trifluoromethoxy)phenyl]-3,4-dihydropyrrolo[1,2-a]pyrazin-1(2H)-one trifluoroacetate]: the pIC50 was 5.50 in the assay with MV-4-11 cells, 7.85 on human PIM1, 6.56 in the assay with BaF3-PIM1 cells and 7.36 at human PIM2.

For the compound `CN1CCN(Cc2ccc(-c3c(-c4cccc(OC(F)(F)F)c4)cc4n3C(CCO)CNC4=O)cc2)CC1` (centres unmarked) [Compound 82, 4-(2-hydroxyethyl)-6-{4-[(4-methylpiperazin-1-yl)methyl]phenyl}-7-[3-(trifluoromethoxy)phenyl]-3,4-dihydropyrrolo[1,2-a]pyrazin-1(2H)-one trifluoroacetate], the pIC50 in the assay on MV-4-11 cells was 5.22; at human PIM1, 9.00; in the assay with BaF3-PIM1 cells, 6.31; at human PIM2 it was 7.46.

For `CN(C)Cc1ccc(-c2c(-c3cccc(OC(F)(F)F)c3)cc3n2C(CCO)CNC3=O)cc1` (centres unmarked) [Compound 83, 6-{4-[(dimethylamino)methyl]phenyl}-4-(2-hydroxyethyl)-7-[3-(trifluoromethoxy)phenyl]-3,4-dihydropyrrolo[1,2-a]pyrazin-1(2H)-one trifluoroacetate], the pIC50 is 5.54 with MV-4-11 cells, 8.40 on human PIM1, 6.48 with BaF3-PIM1 cells and 7.42 on human PIM2.

Consider `NCC[C@H]1CNC(=O)c2cc(-c3cccc(OC(F)(F)F)c3)c(-c3ccsc3)n21` [Compound 85, (4S)-4-(2-aminoethyl)-6-(thiophen-3-yl)-7-[3-(trifluoromethoxy)phenyl]-3,4-dihydropyrrolo[1,2-a]pyrazin-1(2H)-one hydrochloride], for which the pIC50 is 5.44 with MV-4-11 cells, 7.92 at human PIM1, 7.07 in the assay on BaF3-PIM1 cells and 7.16 on human PIM2.

Regarding `NCC[C@H]1CNC(=O)c2cc(-c3cccc(OC(F)(F)F)c3)c(-c3ccccc3)n21` [Compound 87, (4S)-4-(2-aminoethyl)-6-phenyl-7-[3-(trifluoromethoxy)phenyl]-3,4-dihydropyrrolo[1,2-a]pyrazin-1(2H)-one], the pIC50 was 5.44 with MV-4-11 cells, 8.05 at human PIM1, 6.69 with BaF3-PIM1 cells and 7.42 on human PIM2.

In the case of `Cc1cccc(-c2c(-c3cccc(OC(F)(F)F)c3)cc3n2[C@@H](CCN)CNC3=O)c1` [Compound 92, (4S)-4-(2-aminoethyl)-6-(3-methylphenyl)-7-[3-(trifluoromethoxy)phenyl]-3,4-dihydropyrrolo[1,2-a]pyrazin-1(2H)-one hydrochloride], the pIC50 with MV-4-11 cells was 5.66; at human PIM1 it was 8.30; with BaF3-PIM1 cells, 6.83; at human PIM2, 7.82.

For the compound `NCC[C@H]1CNC(=O)c2cc(-c3cccc(OC(F)(F)F)c3)c(-c3ccc(F)cc3)n21` [Compound 94, (4S)-4-(2-aminoethyl)-6-(4-fluorophenyl)-7-[3-(trifluoromethoxy)phenyl]-3,4-dihydropyrrolo[1,2-a]pyrazin-1(2H)-one hydrochloride], the pIC50 with MV-4-11 cells is 5.27; at human PIM1, 7.70; with BaF3-PIM1 cells, 6.37; on human PIM2, 7.57.

Turning to `CC(=O)c1ccc(-c2c(-c3cccc(OC(F)(F)F)c3)cc3n2[C@@H](CCN)CNC3=O)cc1` [Compound 95, (4S)-6-(4-acetylphenyl)-4-(2-aminoethyl)-7-[3-(trifluoromethoxy)phenyl]-3,4-dihydropyrrolo[1,2-a]pyrazin-1(2H)-one hydrochloride], the pIC50 in the assay on MV-4-11 cells is 5.90; at human PIM1 it was 8.22; with BaF3-PIM1 cells, 6.24; at human PIM2, 7.77.

With `NCC[C@H]1CNC(=O)c2cc(-c3cccc(OC(F)(F)F)c3)c(-c3ccc(C=O)cc3)n21` [Compound 97, 4-{(4S)-4-(2-aminoethyl)-1-oxo-7-[3-(trifluoromethoxy)phenyl]-1,2,3,4-tetrahydropyrrolo[1,2-a]pyrazin-6-yl}benzaldehyde hydrochloride], the pIC50 with MV-4-11 cells was 5.68; at human PIM1, 8.15; in the assay on BaF3-PIM1 cells, 5.82; at human PIM2 it was 7.66.

With `NCC[C@H]1CNC(=O)c2cc(-c3cccc(OC(F)(F)F)c3)c(-c3ccc(CN4CCOCC4)cc3)n21` [Compound 99, (4S)-4-(2-aminoethyl)-6-[4-(morpholin-4-ylmethyl)phenyl]-7-[3-(trifluoromethoxy)phenyl]-3,4-dihydropyrrolo[1,2-a]pyrazin-1(2H)-one hydrochloride], the pIC50 in the assay with MV-4-11 cells is 6.17; on human PIM1, 8.70; with BaF3-PIM1 cells, 6.39; on human PIM2, 8.15.

`CN1CCN(Cc2ccc(-c3c(-c4cccc(OC(F)(F)F)c4)cc4n3[C@@H](CCN)CNC4=O)cc2)CC1` [Compound 100, (4S)-4-(2-aminoethyl)-6-{4-[(4-methylpiperazin-1-yl)methyl]phenyl}-7-[3-(trifluoromethoxy)phenyl]-3,4-dihydropyrrolo[1,2-a]pyrazin-1(2H)-one hydrochloride]: the pIC50 in the assay on MV-4-11 cells is 6.21; on human PIM1, 9.00; in the assay with BaF3-PIM1 cells it was 5.51; at human PIM2, 8.70.

For `CN(C)Cc1ccc(-c2c(-c3cccc(OC(F)(F)F)c3)cc3n2[C@@H](CCN)CNC3=O)cc1` [Compound 101, (4S)-4-(2-aminoethyl)-6-{4-[(dimethylamino)methyl]phenyl}-7-[3-(trifluoromethoxy)phenyl]-3,4-dihydropyrrolo[1,2-a]pyrazin-1(2H)-one hydrochloride], the pIC50 in the assay on MV-4-11 cells is 6.03; at human PIM1 it was 9.00; in the assay on BaF3-PIM1 cells, 6.53; on human PIM2, 8.05.
